Here are results for 26 molecules from patent publication US8993612B2, “Modulators of calcium release-activated calcium channel and methods for treatment of non-small cell lung cancer” (Rhizen Pharmaceuticals SA, priority 2009, dated 2015).

One assay concerns the target CRAC channels (Homo sapiens (Human), UniProt Q96D31). In words: In-vitro CRAC channel inhibition assay in Jurkat cells (thapsigargin-induced calcium influx). Format: cell-based. The protocol:
Inhibition of CRAC channels was determined following thapsigargin (Sigma, Cat # T9033) induced endoplasmic calcium release in Jurkat cells. (see Yasurio Yonetoky et. al Bio. & Med. Chem. 14 (2006) 4750-4760). Cells were centrifuged and resuspended in equal volumes ° f Ca^2+ and Mg^2+ free Hanks buffer and Fluo-8 NW dye (ABD Bioquest, Inc., Sunnyvale, Calif.) loading solution at 2×10^5 cells/100 μl/well in 96-well black plate. Plate is incubated at 37° C./5% CO2 for 30 mM followed by further 15 mM incubation at room temperature. Test compounds (DMSO stocks diluted in Ca^2+ and Mg^2+ free Hanks buffer) at desired concentrations were added to the wells and incubated for […]. Thapsigargin (1 μM final concentration) was added to the wells and incubated for 15 min to inhibit the Sarco-endoplasmic reticulum Ca^2+ ATPase pump thereby depleting endoplasmic calcium and raising cytosolic calcium concentrations. Store-operated calcium entry was initiated by adding extracellular Ca^2+ to a final concentration of 1.8 mM. Fluorescence was monitored over […] on a plate reader (BMG Labtech., Germany) with excitation at 485 nm and an emission wavelength at 520 nm. Data were analyzed using GraphPad Prism. IC50 for each compound was determined based on the percent inhibition of thapsigargin-induced calcium influx into cells.

The next assay has as its system NCI-H460 cells. In words: In-vitro cell proliferation assay in NCI-H460 cancer cell line (MTT). Format: cell-based, human. To be noted: Homo sapiens; for inhibition at 10 µM: NCI-H460, 10 μM, 48 h; for IC50: NCI-H460, 48 h, read-out: NCI-H460 Cell line assay G1 50 nM. As for the experimental part: Growth inhibition assays were carried out using 10% FBS supplemented media. Cells were seeded at a concentration of 5000 cells/well in a 96-well plate. Test compound at a concentration range from 0.01 to 10000 nM were added after 24 h. Growth was assessed using the 3-[4,5-dimethylthiazol-2-yl]-2,5-diphenyltetrazolium bromide (MTT) dye reduction test at 0 h (prior to the addition of the test compound) and 48 h after the addition of test compound. Absorbance was read on a Fluostar Optima (BMG Labtech, Germany) at a wave length of 450 nm. Data were analysed using GraphPad Prism. IC-50 for each compound was determined based on the % inhibition due to the test compound compared to the control.
For methods of cell proliferation assay, see, for example, Mosmann. T., Journal of Immunological Methods, 65(1-2), 55-63, (1983).
The effect of CRAC and/or STIM protein on the proliferation and viability of lung cancer cells was determined as follows.
For Methodology Refer 1C.

Counter-ions that a name gives are not always drawn.

Sequence of CRAC channels (Q96D31 whole entry): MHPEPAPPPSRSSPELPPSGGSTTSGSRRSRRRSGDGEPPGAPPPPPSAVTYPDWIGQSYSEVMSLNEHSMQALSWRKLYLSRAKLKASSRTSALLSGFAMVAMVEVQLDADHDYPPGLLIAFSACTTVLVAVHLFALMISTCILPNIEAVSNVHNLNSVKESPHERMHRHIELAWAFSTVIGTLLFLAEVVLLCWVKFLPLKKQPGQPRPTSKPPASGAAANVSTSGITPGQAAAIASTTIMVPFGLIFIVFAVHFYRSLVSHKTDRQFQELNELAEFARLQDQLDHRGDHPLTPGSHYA

In general, inhibition refers to the relative decrease from the control value, in per cent. For the molecule `O=C(Nc1ccc(-n2nc(C3CC3)cc2C2CC2)nc1)c1ccc2ncccc2c1` [Example 13, N-[6-(3,5-dicyclopropyl-1H-pyrazol-1-yl)pyridin-3-yl]quinoline-6-carboxamide Dihydrochloride], the inhibition at 1 µM on CRAC channels (1 uM) was found to be 22.4%.
Take `O=C(Nc1ccc(-n2nc(C3CC3)cc2C2CC2)cc1)c1ccc2nc[nH]c2c1` [Example 1, N-[4-(3,5-dicyclopropyl-1H-pyrazol-1-yl)phenyl]-1H-benzo[d]imidazole-6-carboxamide]: the inhibition at 1 µM on CRAC channels (1 uM) turned out to be 57.6%.
Take `O=C(Cn1nnc2ccccc21)Nc1ccc(-n2nc(C(F)(F)F)cc2C2CC2)c(F)c1` [Example 30, 2-(1H-benzo[d][1,2,3]triazol-1-yl)-N-{4-[5-cyclopropyl-3-(trifluoromethyl)-1H-pyrazol-1-yl]-3-fluorophenyl}acetamide]: the IC50 on CRAC channels stood at 160 nM. Further, at CRAC channels (1 uM), the inhibition at 1 µM was 100%.
For `Cl.Cl.O=C(Cc1ccc2ncccc2c1)Nc1ccc(-n2nc(C3CC3)cc2C2CC2)nc1` [Example 16, N-[6-(3,5-dicyclopropyl-1H-pyrazol-1-yl)pyridin-3-yl]-2-(quinolin-6-yl)acetamidedihydrochloride], the “% inhibition (1 uM)” value on CRAC channels (1 uM) was found to be 30.81%.
For the molecule `O=C(Cn1nnc2cccnc21)Nc1ccc(-n2nc(C(F)(F)F)cc2C2CC2)cc1` [Example 22, 2-(3H-[1,2,3]triazolo[4,5-b]pyridin-3-yl)-N-{4-[5-cyclopropyl-3-(trifluoromethyl)-1H-pyrazol-1-yl]phenyl}acetamide], at CRAC channels (1 uM), the inhibition at 1 µM was 30.9%.
On the same count and under the same terms, the value for `C[C@@H](C(=O)Nc1ccc(-n2nc(C(F)(F)F)cc2C2CC2)cc1)n1nnc2cccnc21` [Example 23, (S)-2-(3H-[1,2,3]triazolo[4,5-b]pyridin-3-yl)-N-{4-[5-cyclopropyl-3-(trifluoromethyl)-1H-pyrazol-1-yl]phenyl}propanamide] was 69.9%.
As for `O=C(Cc1ccc2ncccc2c1)Nc1ccc(-n2nc(C(F)(F)F)cc2C2CC2)nc1` [Example 34, N-{6-[5-cyclopropyl-3-(trifluoromethyl)-1H-pyrazol-1-yl]pyridin-3-yl}-2-(quinolin-6-yl)acetamide hydrochloride], in the assay with NCI-H460 cells, at 10 µM the inhibition was 82.7% and the IC50 came to 628 nM. For the same molecule, the inhibition at 1 µM at CRAC channels (1 uM) stood at 51.2%.
With `O=C(Cn1nnc2ccccc21)Nc1ccc(-n2nc(C(F)(F)F)cc2C2CC2)nc1` [Example 32, 2-(1H-benzo[d][1,2,3]triazol-1-yl)-N-{6-[5-cyclopropyl-3-(trifluoromethyl)-1H-pyrazol-1-yl]pyridin-3-yl}acetamide], the inhibition at 1 µM on CRAC channels (1 uM) was determined as 41.2%.
Same read-out and setting: the value for `CC(C(=O)Nc1ccc(-n2nc(C(F)(F)F)cc2C2CC2)cc1)c1ccc2ncccc2c1` (stereo not shown) [Example 28, N-{4-[5-cyclopropyl-3-(trifluoromethyl)-1H-pyrazol-1-yl]phenyl}-2-(quinolin-6-yl)propanamide Hydrochloride] was 0%; that for `O=C(Cc1c[nH]c2ccccc12)Nc1ccc(-n2nc(C3CC3)cc2C2CC2)cc1` [Example 7, N-[4-(3,5-dicyclopropyl-1H-pyrazol-1-yl)phenyl]-2-(1H-indol-3-yl)acetamide] was 36.8%; that for `O=C(Nc1ccc(-n2nc(C(F)(F)F)cc2C2CC2)nc1)c1ccc2[nH]nnc2c1` [Example 31, N-{6-[5-cyclopropyl-3-(trifluoromethyl)-1H-pyrazol-1-yl]pyridin-3-yl}-1H-benzo[d][1,2,3]triazole-5-carboxamide] was 50.6%.
On the same count and under the same terms, the figure for `O=C(Cn1nnc2ccccc21)Nc1ccc(-n2nc(C3CC3)cc2C2CC2)c(F)c1` [Example 11, 2-(1H-benzo[d][1,2,3]triazol-1-yl)-N-(4-(3,5-dicyclopropyl-1H-pyrazol-1-yl)-3-fluorophenyl)acetamide] is 78.6%; for `O=C(NCc1ccc2ncccc2c1)c1ccc(-n2nc(C(F)(F)F)cc2C2CC2)c(F)c1` [Example 36, 4-[5-cyclopropyl-3-(trifluoromethyl)-1H-pyrazol-1-yl]-3-fluoro-N-(quinolin-6-ylmethyl)benzamide hydrochloride] it is 51%.
Same read-out and setting: the value for `O=C(Cc1cn2ccccc2n1)Nc1ccc(-n2nc(C3CC3)cc2C2CC2)cc1` [Example 8, N-[4-(3,5-dicyclopropyl-1H-pyrazol-1-yl)phenyl]-2-(imidazo[1,2-a]pyridin-2-yl)acetamide Hydrochloride] was 17.9%.
`O=C(Cc1ccc2ncccc2c1)Nc1ccc(-n2nc(C3CC3)cc2C2CC2)c(F)c1` [Example 12, N-[4-(3,5-dicyclopropyl-1H-pyrazol-1-yl)-3-fluorophenyl]-2-(quinolin-6-yl)acetamide Hydrochloride] yielded an inhibition at 10 µM in the assay with NCI-H460 cells of 90%. The IC50 in the assay with NCI-H460 cells was determined as 100 nM; at CRAC channels, 263 nM. Further, the inhibition at 1 µM on CRAC channels (1 uM) amounted to 100%.
As for `O=C(Nc1ccc(-n2nc(C3CC3)cc2C2CC2)nc1)c1ccc2nccnc2c1` [Example 14, N-[6-(3,5-dicyclopropyl-1H-pyrazol-1-yl)pyridin-3-yl]quinoxaline-6-carboxamide], the inhibition at 1 µM at CRAC channels (1 uM) was 17.8%.
`Cn1c(=O)c2c(ncn2CC(=O)Nc2ccc(-n3nc(C(F)(F)F)cc3C3CC3)cc2)n(C)c1=O` [Example 25, N-(4-(5-cyclopropyl-3-(trifluoromethyl)-1H-pyrazol-1-yl)phenyl)-2-(1,3-dimethyl-2,6-dioxo-2,3-dihydro-1H-purin-7(6H)-yl)acetamide]: the inhibition at 1 µM at CRAC channels (1 uM) worked out at 39.1%.
Still for that read-out and setting: the value for `O=C(Cn1nc2ccccc2n1)Nc1ccc(-n2nc(C(F)(F)F)cc2C2CC2)nc1` [Example 33, 2-(2H-benzo[d][1,2,3]triazol-2-yl)-N-{6-[5-cyclopropyl-3-(trifluoromethyl)-1H-pyrazol-1-yl]pyridin-3-yl}acetamide] was 49.5%.
For the molecule `O=C(Nc1ccc(-n2nc(C(F)(F)F)cc2C2CC2)c(F)c1)c1ccc2nn[nH]c2c1` [Example 29, N-{4-[5-cyclopropyl-3-(trifluoromethyl)-1H-pyrazol-1-yl]-3-fluorophenyl}-1H-benzo[d][1,2,3]triazole-6-carboxamide], in the assay on NCI-H460 cells, the inhibition at 10 µM is 100% and the IC50 turned out to be 1520 nM. For the same molecule, the inhibition at 1 µM on CRAC channels (1 uM) worked out at 81.1%.
Turning to `O=C(Cn1nc2ccccc2n1)Nc1ccc(-n2nc(C(F)(F)F)cc2C2CC2)cc1` [Example 21, 2-(2H-benzo[d][1,2,3]triazol-2-yl)-N-{4-[5-cyclopropyl-3-(trifluoromethyl)-1H-pyrazol-1-yl]phenyl}acetamide], the IC50 on CRAC channels was found to be 139 nM. Further, the inhibition at 1 µM on CRAC channels (1 uM) was determined as 83%.
As to `O=C(Cn1nnc2ccccc21)Nc1ccc(-n2nc(C(F)(F)F)c(Cl)c2C2CC2)nc1` [Example 35, 2-(1H-benzo[d][1,2,3]triazol-1-yl)-N-{6-[4-chloro-5-cyclopropyl-3-(trifluoromethyl)-1H-pyrazol-1-yl]pyridin-3-yl}acetamide], the inhibition at 1 µM at CRAC channels (1 uM) came out at 15%.
For `Nc1ncnc2c1ncn2CC(=O)Nc1ccc(-n2nc(C(F)(F)F)cc2C2CC2)cc1` [Example 24, 2-(6-amino-9H-purin-9-yl)-N-{4-[5-cyclopropyl-3-(trifluoromethyl)-1H-pyrazol-1-yl]phenyl}acetamide], the inhibition at 10 µM in the assay on NCI-H460 cells amounted to 84.4%. The inhibition at 1 µM at CRAC channels (1 uM) is 14.8%.
Take `O=C(Cn1nnc2ccccc21)Nc1ccc(-n2nc(C3CC3)cc2C2CC2)nc1` [Example 15, 2-(1H-benzo[d][1,2,3]triazol-1-yl)-N-[6-(3,5-dicyclopropyl-1H-pyrazol-1-yl)pyridin-3-yl]acetamide]: the inhibition at 1 µM at CRAC channels (1 uM) came out at 3.93%.
For `O=C(Nc1ccc(-n2nc(C3CC3)cc2C2CC2)cc1)Nc1ccc2ncccc2c1` [Example 37, 1-[4-(3,5-dicyclopropyl-1H-pyrazol-1-yl)phenyl]-3-(quinolin-6-yl)urea], the inhibition at 1 µM on CRAC channels (1 uM) was 57.3%.
On the same count and under the same terms, the value for `O=C(Cc1cn2ccccc2n1)Nc1ccc(-n2nc(C(F)(F)F)cc2C2CC2)cc1` [Example 26, N-{4-[5-cyclopropyl-3-(trifluoromethyl)-1H-pyrazol-1-yl)phenyl)-2-(imidazo[1,2-a]pyridin-2-yl)acetamide Hydrochloride] was 30.9%.
For the molecule `O=C(Nc1ccc(-n2nc(C(F)(F)F)cc2C2CC2)cc1)c1ccc2nccnc2c1` [Example 18, N-{4-[5-cyclopropyl-3-(trifluoromethyl)-1H-pyrazol-1-yl]phenyl}quinoxaline-6-carboxamide], on CRAC channels, the IC50 was determined as 53.4 nM. The inhibition at 1 µM on CRAC channels (1 uM) came out at 96.6%.
